Patent US9334246B2, “Substituted triazines for malaria treatment and chemoprophylaxis” (The United States of America, as represented by the …, priority 2013, dated 2016)

Columns and labels:
P. falciparum D6 = assay: Malaria SYBR Green Fluorescence Assay, D6 strain; type: cell-based, Plasmodium falciparum; conditions: SYBR Green Assay
P. falciparum C235 = assay: Malaria SYBR Green Fluorescence Assay, C235 strain; type: cell-based, Plasmodium falciparum; conditions: SYBR Green Assay
[1] = target: hERG potassium ion channel (Homo sapiens, UniProt Q12809); assay: hERG patch clamp assay (% inhibition at 10 μM); conditions: % inhibition at 10 μM, patch clamp
Chain of hERG potassium ion channel (Q12809 whole entry): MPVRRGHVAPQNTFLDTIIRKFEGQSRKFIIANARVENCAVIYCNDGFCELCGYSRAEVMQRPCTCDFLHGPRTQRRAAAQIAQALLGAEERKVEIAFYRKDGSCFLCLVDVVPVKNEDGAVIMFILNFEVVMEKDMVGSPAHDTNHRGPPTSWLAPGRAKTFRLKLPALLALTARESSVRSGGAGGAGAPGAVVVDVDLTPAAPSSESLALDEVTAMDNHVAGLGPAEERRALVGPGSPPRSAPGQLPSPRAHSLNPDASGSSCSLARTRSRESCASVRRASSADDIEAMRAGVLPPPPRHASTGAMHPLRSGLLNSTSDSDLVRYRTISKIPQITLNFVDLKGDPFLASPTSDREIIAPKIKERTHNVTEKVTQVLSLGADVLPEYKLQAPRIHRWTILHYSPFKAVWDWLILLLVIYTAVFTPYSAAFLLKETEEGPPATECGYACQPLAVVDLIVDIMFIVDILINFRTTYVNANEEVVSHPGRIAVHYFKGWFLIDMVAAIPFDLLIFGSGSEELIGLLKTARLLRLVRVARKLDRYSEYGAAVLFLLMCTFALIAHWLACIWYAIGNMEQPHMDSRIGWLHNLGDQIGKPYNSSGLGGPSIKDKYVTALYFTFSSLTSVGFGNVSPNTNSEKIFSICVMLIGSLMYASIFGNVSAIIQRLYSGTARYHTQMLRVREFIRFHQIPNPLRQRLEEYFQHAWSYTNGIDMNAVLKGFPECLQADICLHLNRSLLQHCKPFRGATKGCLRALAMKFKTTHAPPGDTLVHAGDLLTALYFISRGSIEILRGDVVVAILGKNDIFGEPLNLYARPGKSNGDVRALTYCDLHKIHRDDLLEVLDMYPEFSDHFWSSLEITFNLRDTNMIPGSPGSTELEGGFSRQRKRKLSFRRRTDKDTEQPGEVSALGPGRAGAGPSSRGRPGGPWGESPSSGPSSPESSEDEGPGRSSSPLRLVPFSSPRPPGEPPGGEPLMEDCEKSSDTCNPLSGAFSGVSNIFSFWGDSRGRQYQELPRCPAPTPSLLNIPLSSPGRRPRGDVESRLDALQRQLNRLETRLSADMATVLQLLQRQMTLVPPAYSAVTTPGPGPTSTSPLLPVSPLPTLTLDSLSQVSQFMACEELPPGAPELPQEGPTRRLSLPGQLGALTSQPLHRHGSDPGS

P. falciparum W2 = assay: Malaria SYBR Green Fluorescence Assay, W2 strain; type: cell-based, Plasmodium falciparum; conditions: SYBR Green Assay

Compound	D6 (P. falciparum D6) [ng/mL]	C235 (P. falciparum C235) [ng/mL]	hERG [1] [%]	W2 (P. falciparum W2) [ng/mL]
CS(=O)(=O)c1ccc(-c2nc(NCCN3CCCC3)nc(C(Cl)(Cl)Cl)n2)cc1 [Cmpd 39]	85	92	90	45
CSc1ccc(-c2nc(NCCC3CCCN3C)nc(C(Cl)(Cl)Cl)n2)cc1 (stereo not drawn) [Cmpd 45]	43	74	38	91
CCN(CC)CCNc1nc(Cc2ccc(OC)cc2)nc(C(Cl)(Cl)Cl)n1 [Cmpd 59]	290	288	100	153
CN1CCCC1CCNc1nc(Nc2ccccc2N2CCOCC2)nc(C(Cl)(Cl)Cl)n1 (stereo not drawn) [Cmpd 64]	140	121	100	75
COc1ccccc1Nc1nc(N2CCN(C)CC2)nc(C(Cl)(Cl)Cl)n1 [Cmpd 65]	32	31	83	32
CCN(CC)CCNc1nc(Cc2ccccc2OC)nc(C(Cl)(Cl)Cl)n1 [Cmpd 70]	6	6	100	6
CN1CCC(Nc2nc(-c3ccc(S(C)(=O)=O)cc3)nc(C(Cl)(Cl)Cl)n2)CC1 [Cmpd 77]	92	131	72	53
CCN1CCCC(Nc2nc(-c3ccc(C)cc3)nc(C(Cl)(Cl)Cl)n2)C1 (stereo not drawn) [Cmpd 80]	135	129	97	90
COc1ccc(Cc2nc(NCCN3CCCC3C)nc(C(Cl)(Cl)Cl)n2)cc1 (stereo not drawn) [Cmpd 89]	805	991	50	718
CN1CCCC1CCNc1nc(-c2ccc(Cl)cc2)nc(C(Cl)(Cl)Cl)n1 (stereo not drawn) [Cmpd 91]	31	32	79	19
Cc1ccccc1-c1nc(NCCN2CCCC2)nc(C(Cl)(Cl)Cl)n1 [Cmpd 121]	70	84	103	42
COc1ccc(-c2nc(NCc3ccncc3)nc(C(Cl)(Cl)Cl)n2)cc1 [Cmpd 130]	12	24	20	5
Clc1ccc(-c2nc(NCCc3ccccn3)nc(C(Cl)(Cl)Cl)n2)cc1 [Cmpd 140]	106	136	11	32
CC(C)(C)c1ccc(-c2nc(N3CCNCC3)nc(C(Cl)(Cl)Cl)n2)cc1 [Cmpd 161]	88	98	15	32
ClC(Cl)(Cl)c1ccc(-c2nc(NCCc3ccccn3)nc(C(Cl)(Cl)Cl)n2)cc1 [Cmpd 163]	50	61	5	20
COc1cccc(-c2nc(NCCN3CCCC3)nc(C(Cl)(Cl)Cl)n2)c1 [Cmpd 192]	18	12	100	13
ClC(Cl)(Cl)c1nc(NCCN2CCCC2)nc(-c2ccc(-c3ccccc3)cc2)n1 [Cmpd 196]	31	30	53	25
Clc1cc(Cl)cc(-c2nc(NCCN3CCCC3)nc(C(Cl)(Cl)Cl)n2)c1 [Cmpd 202]	7	7	51	10
CN1CCCN(c2nc(-c3cc(Cl)cc(Cl)c3)nc(C(Cl)(Cl)Cl)n2)CC1 [Cmpd 205]	23	26	20	7
CN1CCC(Nc2nc(-c3cccc(C(F)(F)F)c3)nc(C(Cl)(Cl)Cl)n2)CC1 [Cmpd 212]	45	25	80	16
COc1ccccc1-c1nc(NCC(C)(C)N)nc(C(Cl)(Cl)Cl)n1 [Cmpd 217]	43	20	62	20
